B1: DS-1062: anti-TROP2 antibody-drug conjugate; exatecan-derivative drug-linker conjugated to the anti-TROP2 antibody via a thioether bond; DAR ~4 (conjugate, chains of the INN, looked up)
VH: QVQLVQSGAEVKKPGASVKVSCKASGYTFTTAGMQWVRQAPGQGLEWMGWINTHSGVPKYAEDFKGRVTISADTSTSTAYLQLSSLKSEDTAVYYCARSGFGSSYWYFDVWGQGTLVTVSS
VL: DIQMTQSPSSLSASVGDRVTITCKASQDVSTAVAWYQQKPGKAPKLLIYSASYRYTGVPSRFSGSGSGTDFTLTISSLQPEDFAVYYCQQHYITPLTFGQGTKLEIK
modifications: exatecan-derivative drug-linker, DAR ~4

Columns and labels:
Set-up in all cases: species or system Female Nude mice
[1] = tested on: N87-DS-1062 resistant tumor cell xenograft (gastric cancer cell line); assay: Antitumor test in vivo, N87 DS-1062 resistant model (Example 9); details: N87-DS-1062 resistant xenograft; DS-1062 10 mg/kg IV single dose; AZD6738 25 mg/kg PO BID Day 1-7
Description: Female Nude mice (Charles River) aged 5-8 weeks were used, following 7 days acclimatisation before entry into the study. 5×10^6 N87-DS-1062 resistant tumor cells (gastric cancer cell line) (1:1 in Matrigel) were implanted subcutaneously onto the flank of the female Nude mice. When tumors reached approximately 250 mm^3, similar-sized tumors were randomly assigned to treatment groups as shown in Table 13:
The dose of compound for each animal was calculated based on the individual body weight on the day of dosing. DS-1062 and AZD6738 were dosed on the same day, with DS-1062 being administered approximately 5 hour post the PO dose of AZD6738. DS-1062 was administered as a single dose at 10 mg/kg on day 1, and AZD6738 was administered at 25 mg/kg BID for 7 days.
(§1) The dosing solution for DS-1062 was prepared on the day of dosing by diluting the DS-1062 stock (20.1 mg/ml) in 25 mM histidine buffer, 9% sucrose (pH5.5) to 2 mg/ml for 10 mg/kg dosing solution. The dosing solution was mixed well using a pipette before administration via IV injection at a dosing volume of 5 ml/kg.
DMSO (10% of the total vehicle volume) was added to the compound and mixed well with a pellet pestle. Sonication for approximately 5 minutes was required to fully dissolve the compound. Following which, propylene glycol (40% of the total vehicle volume) was added and mixed well using a magnetic stirrer. […]

[2] = tested on: NCI-N87 xenograft (gastric cancer cell line); assay: Antitumor test in vivo, dose optimization, NCI-N87 xenograft model (Example 7); details: DS-1062 10 mg/kg IV single dose, AZD6738 25 mg/kg PO BID Day 1-14
Description: Female Nude mice (Envigo) aged 5-8 weeks were used, following 7 days acclimatisation before entry into the study. 5×10^6 NCI-N87 tumor cells (gastric cancer cell line) (1:1 in Matrigel) were implanted subcutaneously onto the flank of the female Nude mice. When tumors reached approximately 250 mm^3, similar-sized tumors were randomly assigned to treatment groups as shown in Table 9:
The dose of compound for each animal was calculated based on the individual body weight on the day of dosing. DS-1062 was administered as a single dose at 10 mg/kg on day 1, and AZD6738 was administered at 25 mg/kg BID as listed in Table 9.
The dosing solution for DS-1062 was prepared on the day of dosing by diluting the DS-1062 stock (20.1 mg/ml) in 25 mM histidine buffer, 9% sucrose (pH5.5) to 2 mg/ml for 10 mg/kg dosing solution. Each dosing solution was mixed well using a pipette before administration via IV injection at a dosing volume of 5 ml/kg.
DMSO (10% of the total vehicle volume) was added to the compound and mixed well with a pellet pestle. Sonication for approximately 5 minutes was required to fully dissolve the compound. […]
(§2) Tumor growth inhibition (TGI) was calculated as follows:
(§3) Statistical significance was evaluated using one-tailed t-test of (log(relative tumor volume)=log(final vol/start vol)) at the day of final measure, comparing to vehicle control. […]

[3] = tested on: CTG-3303 xenograft (TNBC PDX, relapsed on talazoparib); assay: Antitumor test in vivo, TNBC patient derived xenograft model CTG-3303 (Example 5); details: CTG-3303 TNBC PDX; for TGI % day 46: DS-1062 10 mg/kg IV single dose, AZD6738 25 mg/kg PO QD 14 days; for percentage of mice achieving a complete response (tumor volume=0 mm^3): day 93 post treatment, 8 mice per group, DS-1062 10 mg/kg, AZD6738 25 mg/kg QD
Source text: (§4) Female Nude mice (Charles River) aged 5-8 weeks were used, following 7 days acclimatisation before entry into the study. The human patient-derived xenograft (PDX) model, CTG-3303, was established from fragments of freshly resected tumor of a triple negative breast cancer (TNBC) patient whom relapsed on treatment with PARP inhibitor talazoparib. This PDX was obtained in accordance with appropriate consent procedures. This TNBC PDX model was subcutaneously passaged in vivo as fragments from animal to animal in nude mice. When tumors reached approximately 250 mm^3, similar-sized tumors were randomly assigned to treatment groups as shown in Table 6:
(§5) The dose of compound for each animal was calculated based on the individual body weight on the day of dosing. DS-1062 and AZD6738 were dosed on the same day, with DS-1062 being administered approximately 5 hour post the PO dose of AZD6738. DS-1062 was administered as a single dose at 10 mg/kg on day 1, and AZD6738 was administered at 25 mg/kg QD for 14 days. Duration of dosing was for 14 days.
The dosing solutions for DS-1062 were prepared on the day of dosing by diluting the DS-1062 stock (20.1 mg/ml) in 25 mM histidine buffer, 9% sucrose (pH5.5) to 0.6 mg/ml, and 2 mg/ml for the 3 mg/kg and 10 mg/kg dosing solutions, respectively. Each dosing solution was mixed well using a pipette before administration via IV injection at a dosing volume of 5 ml/kg.
DMSO (10% of the total vehicle volume) was added to the compound and mixed well with a pellet pestle. Sonication for approximately 5 minutes was required to fully dissolve the compound. Following which, propylene glycol (40% of the total vehicle volume) was added and mixed well using a magnetic stirrer. A volume of 10 ml of sterile water was added to the glass wheaton vial to rinse any remaining compound from the vial then transferred to the glass bottle. The remaining volume of sterile water in total (50% of the final vehicle volume) was added to the glass bottle and mixed well using a magnetic stirrer. The dosing solution was protected from light and kept at room temperature for up to 7 days being continually mixed. The final dosing matrix for 25 mg/kg AZD6738 was a clear solution with a faint yellow hue.
Values shown are geometric mean±SEM; n=8 for all treatment groups. The mice which had reached the humane endpoint (e.g. large tumor burden) during the study were removed from the group and the remaining mice were used for the calculation of the TGI.

[4] = tested on: NCI-N87 xenograft (gastric cancer cell line); assay: Antitumor test in vivo, NCI-N87 xenograft model (Example 4); details: DS-1062 10 mg/kg IV single dose, AZD6738 25 mg/kg PO QD 14 days
Description: Female Nude mice (Charles River) aged 5-8 weeks were used, following 7 days acclimatisation before entry into the study. 5×10^6 NCI-N87 tumor cells (gastric cancer cell line) (1:1 in Matrigel) were implanted subcutaneously onto the flank of the female Nude mice. When tumors reached approximately 250 mm^3, similar-sized tumors were randomly assigned to treatment groups as shown in Table 4:
as §5
The dosing solutions for DS-1062 were prepared on the day of dosing by diluting the DS-1062 stock (20.1 mg/ml) in 25 mM histidine buffer, 9% sucrose (pH5.5) to 0.6 mg/ml, and 2 mg/ml for the 3 mg/kg and 10 mg/kg dosing solutions, respectively. Each dosing solution was mixed well using a pipette before administration via IV injection at a dosing volume of 5 ml/kg. […]
as §2, §3

[5] = tested on: CTG-3718 xenograft (ovarian PDX, relapsed on talazoparib); assay: Antitumor test in vivo, CTG3718 ovarian patient derived xenograft model (Example 8); details: CTG-3718 ovarian PDX; DS-1062 10 mg/kg IV single dose; AZD6738 25 mg/kg PO BID Day 1-14
Source text: as §4, with “(Envigo)” for “(Charles River)”, “CTG-3718,” for “CTG-3303,”, “ovarian” for “triple negative breast”, “cancer” for “cancer (TNBC)”, “ovarian” for “TNBC”, “11:” for “6:”
The dose of compound for each animal was calculated based on the individual body weight on the day of dosing. DS-1062 and AZD6738 were dosed on the same day, with DS-1062 being administered approximately 5 hour post the PO dose of AZD6738. DS-1062 was administered as a single dose at 10 mg/kg on day 1, and AZD6738 was administered at 25 mg/kg BID for 14 days.
as §1
DMSO (10% of the total vehicle volume) was added to the compound and mixed well with a pellet pestle. […]

Molecule | TGI % day 21 [1] [%] | TGI % day 42 [2] [%] | TGI % day 46 [3] [%] | percentage of mice achieving a complete response (tumor volume=0 mm^3) [3] [%] | TGI % day 33 [4] [%] | TGI % day 22 [5] [%]
C[C@@H]1COCCN1c1cc(C2([S@](C)(=N)=O)CC2)nc(-c2ccnc3[nH]ccc23)n1 [AZD6738, 4-{4-[(3R)-3-Methylmorpholin-4-yl]-6-[1-((R)-S-methylsulfonimidoyl)cyclopropyl]pyrimidin-2-yl}-1H-pyrrolo[2,3-b]pyridine] | −9.8 | 23.7 | 2.3 | 0 | 30.1 | −25.7
B1 | 0.77 | 74.8 | 88.2 | 0 | 84.1 | 69.8

From patent US20250064967A1, “COMBINATION OF ANTIBODY-DRUG CONJUGATE AND ATR INHIBITOR” (AstraZeneca UK Limited, priority 2021, published 2025)
